Laboratory results published in the SangsterLogP compilation.

Assay: method code SF-AS, from DOI: 10.1271/bbb1961.38.1521

SMILES | logP
CNC(=O)Oc1cccc(F)c1 | 1.48
CNC(=O)Oc1ccccc1C | 1.46
CNC(=O)Oc1ccc(SC)c(C)c1 | 2.47
CNC(=O)Oc1cccc(OC(C)C)c1 | 1.96
CNC(=O)Oc1ccc([N+](=O)[O-])cc1 | 1.47
CNC(=O)Oc1cc(C)cc(C(C)(C)C)c1 | 3.35
CNC(=O)Oc1ccccc1Br | 1.77
CNC(=O)Oc1cccc(C(=O)OC)c1 | 1.42
CNC(=O)Oc1ccc(C=O)cc1 | 0.99
CNC(=O)Oc1ccccc1Cl | 1.64
CNC(=O)Oc1ccc(C(C)(C)C)cc1 | 3.06
CNC(=O)Oc1cc(C)ccc1C(C)C | 2.84
CNC(=O)Oc1ccc(C#N)cc1 | 0.95
CNC(=O)Oc1ccccc1[N+](=O)[O-] | 1.02
CNC(=O)Oc1ccccc1F | 1.25
CCCCOc1ccc(OC(=O)NC)cc1 | 2.86
CCCc1cccc(OC(=O)NC)c1 | 2.64
CNC(=O)Oc1cc(C)ccc1C(C)(C)C | 3.14
CCCc1ccccc1OC(=O)NC | 2.4
CNC(=O)Oc1ccc(C(=O)OC)cc1 | 1.5
CCC(C)c1ccc(OC(=O)NC)cc1 (stereo unspecified) | 3.2
CNC(=O)Oc1cccc(Br)c1 | 2.25
CNC(=O)Oc1ccccc1OC | 0.81
CNC(=O)Oc1cccc(C)c1C | 1.95
CCCCOc1cccc(OC(=O)NC)c1 | 2.96
CNC(=O)Oc1ccccc1C(C)C | 2.31

SMILES | logP
CNC(=O)Oc1cccc(C=O)c1 | 0.92
CNC(=O)Oc1cc(Cl)cc(Cl)c1 | 3.03
CNC(=O)Oc1ccccc1C(C)(C)C | 2.65
CCC(=O)c1ccc(OC(=O)NC)cc1 | 1.55
CCc1ccccc1OC(=O)NC | 1.93
CNC(=O)Oc1ccc(Cl)cc1 | 2.01
CNC(=O)Oc1cc(C)ccc1C | 2.03
CNC(=O)Oc1ccccc1I | 1.96
CNC(=O)Oc1cccc(C(C)(C)C)c1 | 2.93
CNC(=O)Oc1ccc2ccccc2c1 | 2.56
CNC(=O)Oc1ccccc1C#N | 0.86
CNC(=O)Oc1ccc(C(C)(C)C)c(C)c1 | 3.38
CCOc1ccccc1OC(=O)NC | 1.24
CNC(=O)Oc1ccc(C(C)=O)cc1 | 1.01
CNC(=O)Oc1cccc(Cl)c1 | 2.03
CNC(=O)Oc1ccc(SC)cc1 | 1.92
CNC(=O)Oc1cccc(C(F)(F)F)c1 | 2.37
CNC(=O)Oc1ccc(Br)cc1 | 2.17
CNC(=O)Oc1cc(C)cc(C(C)C)c1 | 3.1
CNC(=O)Oc1ccc(S(C)(=O)=O)cc1 | 0.34
CNC(=O)Oc1cccc2ccccc12 | 2.36
CCCc1ccc(OC(=O)NC)cc1 | 2.72
CNC(=O)Oc1ccc(Cl)c(C)c1 | 2.57
CNC(=O)Oc1ccc(Cl)c(Cl)c1 | 2.8
CNC(=O)Oc1cccc(C(C)C)c1 | 2.63
